Measured values taken from patent US20140066842A1, “MICRONEEDLE DEVICES AND METHODS” (3M INNOVATIVE PROPERTIES COMPANY, priority 2011, published 2014).

Legend:
[1] = In vivo delivery of lidocaine to swine skin tissue from coated microneedle array (biopsy, LC/MS/MS); conditions: dose-extending component delivered with lidocaine and/or prilocaine by microneedles
Experimental: The in vivo delivery of lidocaine to tissue using the coated microneedle array described above was determined using naïve young adult female mixed breed agricultural swine (Yorkshire X from Midwest Research Swine, Gibbon, Minn.). Swine with minimal skin pigmentation and weighing 10-40 kg were selected for the study. The animals were initially sedated with ketamine (10 mg/kg) and glycopyrrolate (0.011 mg/kg) was intramuscularly administered to reduce salivary, tracheobronchial, and pharyngeal secretions. Hair and dirt on pig skin at the intended application sites were removed prior to application of the microneedle array to minimize complications Skin test sites were selected based on lack of skin pigmentation and skin damage. The hair was first clipped using an electric shaver followed by shaving with a wet multi-blade disposable razor (Schick Xtreme3) and shaving cream (Gillette Foamy Regular) while the animal was under anesthesia.
A light surgical plane of anesthesia was achieved by administering 1.5-5% isoflurane in 1.5-4 L of oxygen by mask. Anesthetized animals were placed in lateral recumbency on insulated table pads. During the experiment, the animals were placed on a heated table to control body temperature at approximately 38° C. Animals were observed continuously until normal recovery was attained. […] The biopsy punch samples were stored at −20° C. until analyzed. […]
Protein precipitation was used to prepare the digested tissue samples for analysis by LC/MS/MS. […] The resulting sample was quantitatively analyzed using a Sciex API3000 triple quadrupole mass spectrometer (Applied Biosystems, Foster City, Calif.) running in positive ion mode using Turbo IonSpray interface to monitor the product ions resulting from the m/z transitions: 235→86.2 for lidocaine and 247→97.5 for mepivacaine. The linear range for lidocaine was 50.0 to 20,000 ng/mL evaluated using 1/x^2 curve weighting. […]

[2] = Discoloration of tissue in which local anesthetic/dose-extending component are administered; type: in vivo; conditions: dose-extending component administered with local anesthetic by the microneedle devices

SMILES | Extension of the local anesthetic dose (tissue levels compared with local anesthetic without the alpha adrenergic agonist) [1] | Discoloration of the tissue [2]
Clc1cccc(Cl)c1N=C1NCCN1 [clonidine] | extend the local anesthetic dose | without any appreciable tissue discoloration
N=C(N)NC(=O)Cc1c(Cl)cccc1Cl [guanfacine] | extend the local anesthetic dose | without any appreciable tissue discoloration
CNC[C@H](O)c1ccc(O)c(O)c1 [epinephrine] | – | cause discoloration of the tissue, resulting in a blue or bruised appearance
Nc1cc(Cl)c(N=C2NCCN2)c(Cl)c1 [apraclonidine] | extend the local anesthetic dose | without any appreciable tissue discoloration
